# Experimental data from patent US11401277B2, “Anti-bacterial heterocyclic compounds and their synthesis” (Bugworks Research, Inc., priority 2017, dated 2022).
# Several values for one entry are separate records, joined by “and”; a condition that tells them apart may be missing. Equal values may be shown once.
# Tests used:
# A. baumannii ATCC 19606 = test: MIC studies in LB Media; type: cell-based; details: Acinetobacter baumannii, ATCC19606, read-out: Minimum Inhibitory Concentration in LB Media, A. ba
# Experimental: (§1) Bacterial cultures that were stored as glycerol stocks at −80° C. were sub cultured on LB agar plates to obtain isolated colonies. A single colony of each strain was cultured in LB broth. The cultures were incubated at 37° C., 200 rpm till they reach an optical density (OD at 600 nm) of 0.8 to 1. […] Test compounds were dissolved in dimethyl sulfoxide (DMSO) to a stock concentration of 4 mg/ml. A two-fold dilution series of this DMSO stock was prepared in a 96 well V bottom microtitre plate from rows A to H. A 3 μL volume of these dilutions were transferred to a 96-well flat bottom microtitre assay plate. Controls to monitor the effects of DMSO and media sterility were included. Each well was inoculated with 150 μL of the above diluted culture. The plates were incubated at 37° C. overnight in a humidified incubator. The following morning, the plates were read using a Spectrophotometer at 600 nm wavelength.
# [1] = test system: Citrobacter freundii ATCC 43864; test: MIC studies in LB Media; type: cell-based; details: ATCC43864, read-out: Minimum Inhibitory Concentration in LB Media, C. fr
# Experimental: as §1
# E. coli ATCC 25922 = test: MIC studies in LB Media; type: cell-based; details: Escherichia coli, ATCC25922, read-out: Minimum Inhibitory Concentration in LB Media, E. co
# Experimental: as §1
# E. faecalis ATCC 29212 = test: MIC studies in LB Media; type: cell-based; details: Enterococcus faecalis, ATCC29212, read-out: Minimum Inhibitory Concentration in LB Media, E. fa
# Experimental: as §1
# [2] = test system: Enterobacter cloacae ATCC 13047; test: MIC studies in LB Media; type: cell-based; details: ATCC13047, read-out: Minimum Inhibitory Concentration in LB Media, E. cl
# Experimental: as §1
# K. pneumoniae ATCC 13883 = test: MIC studies in LB Media; type: cell-based; details: Klebsiella pneumoniae, ATCC13883, read-out: Minimum Inhibitory Concentration in LB Media, K. pn
# Experimental: as §1
# [3] = test system: Morganella morganii ATCC 25830; test: MIC studies in LB Media; type: cell-based; details: ATCC25830, read-out: Minimum Inhibitory Concentration in LB Media, M. mo
# Experimental: as §1
# P. aurigenosa ATCC 27853 = test: MIC studies in LB Media; type: cell-based; details: Pseudomonas aeruginosa, ATCC27853, read-out: Minimum Inhibitory Concentration in LB Media, P. ae
# Experimental: as §1
# [4] = test system: Proteus mirabilis ATCC 43071; test: MIC studies in LB Media; type: cell-based; details: ATCC43071, read-out: Minimum Inhibitory Concentration in LB Media, P. mi
# Experimental: as §1
# S. aureus ATCC 29213 = test: MIC studies in LB Media; type: cell-based; details: Staphylococcus aureus, ATCC29213, MIC = 90% inhibition of growth, read-out: Minimum Inhibitory Concentration in LB Media, S. au
# Experimental: as §1
# [5] = test system: A. baumanni clinical strains; test: Susceptibility (MIC50 and MIC90 determination) studies, clinical strains; type: cell-based; details: CLSI
# [6] = test system: E. cloacae clinical strains; test: as above; type: cell-based; details: CLSI
# hERG potassium channel = target: T1, hERG potassium channel (Homo sapiens, UniProt Q12809); test: hERG inhibition assay, QPatch HTX automated electrophysiology; type: cell-based; details: CHO cell line expressing hERG; whole-cell patch clamp, room temperature
# T1 construct: Chinese Hamster Ovary cell line stably expressing the full-length hERG potassium channel; expressed in transfected cells
# T1 sequence (Q12809 whole entry): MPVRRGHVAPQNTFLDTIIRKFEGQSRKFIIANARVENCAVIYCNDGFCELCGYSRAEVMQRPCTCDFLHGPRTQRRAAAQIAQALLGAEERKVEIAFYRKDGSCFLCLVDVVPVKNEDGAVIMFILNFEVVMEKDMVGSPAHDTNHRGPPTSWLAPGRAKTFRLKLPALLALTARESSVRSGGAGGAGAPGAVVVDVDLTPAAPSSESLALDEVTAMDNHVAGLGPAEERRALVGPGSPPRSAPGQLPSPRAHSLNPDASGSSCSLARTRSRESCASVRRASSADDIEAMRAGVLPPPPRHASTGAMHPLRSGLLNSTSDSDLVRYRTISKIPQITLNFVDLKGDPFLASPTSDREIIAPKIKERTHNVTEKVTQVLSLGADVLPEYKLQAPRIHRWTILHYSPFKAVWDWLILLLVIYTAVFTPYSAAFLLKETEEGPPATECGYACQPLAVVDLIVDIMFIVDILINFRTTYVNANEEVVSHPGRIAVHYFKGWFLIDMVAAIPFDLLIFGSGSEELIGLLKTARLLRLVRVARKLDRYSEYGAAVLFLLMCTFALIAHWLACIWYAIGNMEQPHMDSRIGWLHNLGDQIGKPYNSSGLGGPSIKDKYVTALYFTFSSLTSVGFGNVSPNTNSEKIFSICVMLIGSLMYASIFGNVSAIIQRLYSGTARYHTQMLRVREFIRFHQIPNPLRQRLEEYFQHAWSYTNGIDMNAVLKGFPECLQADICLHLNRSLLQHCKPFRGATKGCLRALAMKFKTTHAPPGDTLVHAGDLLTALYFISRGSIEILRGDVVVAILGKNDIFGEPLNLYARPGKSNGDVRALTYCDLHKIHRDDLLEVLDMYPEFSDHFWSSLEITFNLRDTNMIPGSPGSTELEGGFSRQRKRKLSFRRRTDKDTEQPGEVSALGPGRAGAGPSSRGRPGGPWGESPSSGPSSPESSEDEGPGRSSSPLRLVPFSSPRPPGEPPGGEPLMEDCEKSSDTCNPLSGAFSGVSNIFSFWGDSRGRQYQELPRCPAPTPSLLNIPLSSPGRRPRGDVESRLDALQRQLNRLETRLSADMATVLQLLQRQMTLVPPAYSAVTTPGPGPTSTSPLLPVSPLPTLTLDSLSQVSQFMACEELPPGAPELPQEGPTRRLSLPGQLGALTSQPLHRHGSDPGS
# Experimental: The compounds were tested for inhibition of the human ether a go-go related gene (hERG) K+ channel using QPatch HTX automated electrophysiology.
# Compounds of Formula I were solubilised to 100 mM in DMSO before dilution in HBPS to 300 μM.
# Electrophysiological recordings were made from a Chinese Hamster Ovary cell line stably expressing the full-length hERG potassium channel. Single cell ionic currents were measured in whole-cell patch clamp configuration at room temperature (21-23° C.) using the QPatch HTX platform (Sophion). Intracellular solution contained (mM): 120 KF, 20 KCl, 10 EGTA, 10 HEPES and was buffered to pH 7.3. […] Cells were clamped at a holding potential of −80 mV. Cells were stepped to +20 mV for 2 s then −40 mV for 3 s before returning to the holding potential. This sweep was repeated 10 times at 10 s intervals. hERG currents were measured from the tail step and referenced to the holding current. Compounds were then incubated for 2 minutes prior to a second measurement of ion channel current using an identical pulse train.
# [7] = IV Formulation solubility; type: physicochemical; details: 10% L-ascorbic acid in MilliQ water, 37 °C, pH 2.8, aqueous with cosolvent or surfactant or cyclodextrin, thermodynamic from solid, 1N NaOH for pH adjustment, read-out: Solubility in 10% L-ascorbic acid in fresh MilliQ water(v/v), Final pH~2.8
# Experimental: Procedure: Weighed appropriate amount of the Compound 2 to be tested and dissolved in 1 ml of the 10% ascorbic acid solution. (Vortex for a few seconds if the compound doesn't dissolve instantly). Sonicated the compound solution at 37° C. for 5 minutes using a bath sonicator to obtain a visually clear solution. […]
# [8] = test system: K. pneumoniae [ATCC13883]; test: Neutropenic Thigh Infection Model in Rat, K. pneumoniae; type: in vivo; details: for MEAN ± SD (Log10 CFU/g thigh) / Mean Log 10 CFU/thigh reduction (wrt 2 h PI control: 5.04 Log10CFU/g thigh) / Log10 CFU/g thigh: i.v., 1 h infusion; for Log10 CFU/g thigh: individual animals, 10 hr post infection
smiles,measurement,setting,value
"Cn1c(=O)ccc2ccc(F)c(OCCNC[C@H]3CN(c4cnc5c(n4)NC(=O)CO5)C(=O)O3)c21 [Compound 2, (S)-6-(5-(((2-((7-fluoro-1-methyl-2-oxo-1,2-dihydroquinolin-8-yl)oxy)ethyl)amino)methyl)-2-oxooxazolidin-3-yl)-2H-pyrazino[2,3-b][1,4]oxazin-3(4H)-one]",MIC,A. baumannii ATCC 19606,0.06 µg/mL
same,MIC,[1],≤ 0.03 µg/mL
same,MIC,E. coli ATCC 25922,0.03 µg/mL
same,MIC,E. faecalis ATCC 29212,0.06 µg/mL
same,MIC,[2],0.125 µg/mL
same,MIC,K. pneumoniae ATCC 13883,0.06 µg/mL
same,MIC,[3],0.125 µg/mL
same,MIC,P. aurigenosa ATCC 27853,0.5 µg/mL
same,MIC,[4],0.125 µg/mL
same,MIC,S. aureus ATCC 29213,≤ 0.015 µg/mL
same,MIC50,[5]; Aba clinical strains,0.06 µg/mL
same,MIC90,[5]; Aba clinical strains,0.25 µg/mL
same,Minimum (MIC),"[5]; Aba clinical strains, MIC50/MIC90 in μg/ml, in µg/mL",0.03
same,MIC ATCC19606,"[5]; Aba reference strain ATCC19606, MIC50/MIC90 in μg/ml",0.06 µg/mL
same,Minimum (MIC),[6]; MIC50/MIC90 in μg/ml,0.03 µg/mL
same,MIC50,[6]; Enterobacter cloacae,0.125 µg/mL
same,MIC90,[6]; Enterobacter cloacae,0.25 µg/mL
same,IC50,hERG potassium channel,124 µM
same,solubility at 5 min,[7],15 mg/mL
same,MEAN ± SD (Log10 CFU/g thigh),[8]; 3 mg/kg,3.91 ± 0.04 Log10 CFU/g thigh
same,Mean Log 10 CFU/thigh reduction (wrt 2 h PI control: 5.04 Log10CFU/g thigh),[8]; 3 mg/kg,1.13 Log 10 CFU/thigh
same,Log10 CFU/g thigh,[8]; 3 mg/kg,3.95 Log10 CFU/g thigh and 3.87 Log10 CFU/g thigh and 3.91 Log10 CFU/g thigh
same,MEAN ± SD (Log10 CFU/g thigh),[8]; 10 mg/kg,3.61 ± 0.31 Log10 CFU/g thigh
same,Mean Log 10 CFU/thigh reduction (wrt 2 h PI control: 5.04 Log10CFU/g thigh),[8]; 10 mg/kg,1.43 Log 10 CFU/thigh
same,Log10 CFU/g thigh,[8]; 10 mg/kg,3.74 Log10 CFU/g thigh and 3.26 Log10 CFU/g thigh and 3.84 Log10 CFU/g thigh
same,efficacy with respect to 2 h Post Infection (PI) control (in words),"[8]; 3, 10 and 30 mg/kg, rat thigh K. pneumoniae",significant dose dependent bactericidal efficacy
